{
  "source": "patent US20020045668A1",
  "about": "“Compositions for sustained release of analgesic agents, and methods of making and using the same” (priority 2000, published 2002)",
  "data": [
    {"settings": "cited from earlier work", "values": [
      {"compound": "CC(C)CCC[C@@H](C)[C@H]1CC[C@H]2[C@@H]3CC=C4C[C@@H](O)CC[C@]4(C)[C@H]3CC[C@]12C", "note": "[Cholesterol]", "Solubility in Organic Solvents": "1 in 4.5 chloroform"},
      {"compound": "CCCCC(CC)COC(=O)CC(C(=O)OCC(CC)CCCC)S(=O)(=O)O", "note": "(stereo not drawn) [Docusate]", "Solubility in Organic Solvents": "1 in 1"},
      {"compound": "OC[C@@H](O)[C@@H](O)[C@H](O)[C@H](O)CO", "note": "[Mannitol]", "Solubility in Organic Solvents": "Practically insoluble"},
      {"compound": "O=C1NS(=O)(=O)c2ccccc21", "note": "[Saccharin]", "Solubility in Organic Solvents": "Slightly soluble"},
      {"compound": "C/C=C/C=C/C(=O)O", "note": "[Sorbic acid]", "Solubility in Organic Solvents": "1 in 15 chloroform"}
    ]},
    {"settings": "data not shown", "values": [
      {"compound": "CCN(CC)CC(=O)Nc1c(C)cccc1C", "note": "[pure lidocaine, lidocaine]", "T80% (time required for 80% of lidocaine to be released)": "less than 30 minutes"}
    ]}
  ]
}
